This test has as its system BDF1 mice, P288 leukemia ip, survival T/C. Description: NCI In Vivo Anticancer Drug Screen. Data for tumor model P288 Lymphocytic Leukemia (intraperitoneal) in B6D2F1 (BDF1) mice. To be noted: endpoint: survival time, mean or median, higher = longer survival. The procedure:
The antitumor activity of compounds was measured in mice bearing transplantable tumors. Survival or tumor size were measured and the results are expressed as the measurement made in the treated group (T) divided by the measurement made in the vehicle treated control group (C). The tumor model used in this assay is P288 Lymphocytic Leukemia (intraperitoneal) in B6D2F1 (BDF1) mice

Setting [1] is: dose: 16.0 mg/kg/injection, schedule: Q01DX010 (ip), vehicle: saline.
Setting [2] is: dose: 1.0 mg/kg/injection, schedule: Q01DX Z (ip), vehicle: carboxymethylcellulose (CMC).
Where [3] appears, read: dose: 2.0 mg/kg/injection, schedule: Q01DX Z (ip), vehicle: carboxymethylcellulose (CMC).
Setting [4] is: dose: 2.0 mg/kg/injection, schedule: Q01DX010 (ip), vehicle: saline.
Where [5] appears, read: dose: 8.0 mg/kg/injection, schedule: Q01DX010 (ip), vehicle: saline.
Where [6] appears, read: dose: 25.0 mg/kg/injection, schedule: Q01DX Z (sc), vehicle: steriod suspending solution.
[7] abbreviates: dose: 50.0 mg/kg/injection, schedule: Q01DX Z (sc), vehicle: steriod suspending solution.
Where [8] appears, read: dose: 100.0 mg/kg/injection, schedule: Q01DX Z (sc), vehicle: steriod suspending solution.
Where [9] appears, read: dose: 200.0 mg/kg/injection, schedule: Q01DX Z (sc), vehicle: steriod suspending solution.
Where [10] appears, read: dose: 400.0 mg/kg/injection, schedule: Q01DX Z (sc), vehicle: steriod suspending solution.
Where [11] appears, read: dose: 25.0 mg/kg/injection, schedule: Q01DX010 (ip), vehicle: saline.
Where [12] appears, read: dose: 50.0 mg/kg/injection, schedule: Q01DX010 (ip), vehicle: saline.
The mark [13] stands for this setting: dose: 0.5 mg/kg/injection, schedule: Q01DX010 (ip), vehicle: saline.
[14] abbreviates: dose: 1.0 mg/kg/injection, schedule: Q01DX010 (ip), vehicle: saline.

Structures are written as SMILES. “And” between values parts separate entries of the source, which are not always exact repeats. Identical values can stand only once. Toxic doses and inconclusive results are not listed.

Turning to `CCCCn1cnc2c(=S)nc[nH]c21`, the T/C under setting [1] is 88 % of control and 94 % of control; the T/C (dose: 25.0 mg/kg/injection, schedule: Q01DX Z (ip), vehicle: carboxymethylcellulose (CMC)) was 108 % of control; the T/C (dose: 32.0 mg/kg/injection, schedule: Q01DX010 (ip), vehicle: saline) is 88 % of control and 100 % of control; the T/C (dose: 50.0 mg/kg/injection, schedule: Q01DX Z (ip), vehicle: carboxymethylcellulose (CMC)) was 102 % of control; the T/C (dose: 64.0 mg/kg/injection, schedule: Q01DX010 (ip), vehicle: saline) was 88 % of control and 100 % of control; the T/C (dose: 100.0 mg/kg/injection, schedule: Q01DX Z (ip), vehicle: carboxymethylcellulose (CMC)) was 106 % of control and 113 % of control. For the same molecule, the T/C is 100 % of control (dose: 128.0 mg/kg/injection, schedule: Q01DX010 (ip), vehicle: saline) and 100 % of control (dose: 200.0 mg/kg/injection, schedule: Q01DX Z (ip), vehicle: carboxymethylcellulose (CMC)).
Turning to `Cn1cnc([N+](=O)[O-])c1Sc1nc(N)nc2nc[nH]c12`, the T/C (dose: 0.25 mg/kg/injection, schedule: Q01DX Z (ip), vehicle: carboxymethylcellulose (CMC)) is 107 % of control; the T/C (dose: 0.5 mg/kg/injection, schedule: Q01DX Z (ip), vehicle: carboxymethylcellulose (CMC)) was 94 % of control; the T/C under setting [2] is 113 % of control; the T/C under setting [3] is 105 % of control.
Turning to `O=c1[nH]cc(F)c(=O)[nH]1`, the T/C reads like this: (dose: 5.0 mg/kg/injection, schedule: Q01DX010 (ip), vehicle: saline) 115 % of control and 118 % of control and 100 % of control; (dose: 10.0 mg/kg/injection, schedule: Q01DX010 (ip), vehicle: saline) 122 % of control; (dose: 20.0 mg/kg/injection, schedule: Q01DX010 (ip), vehicle: saline) 155 % of control and 190 % of control and 193 % of control.
As to `C=CC(CN1CC1)OC(C)=O` (configuration not stated), the T/C by setting is: (dose: 0.47 mg/kg/injection, schedule: Q01DX Z (ip), vehicle: carboxymethylcellulose (CMC)) 109 % of control; (dose: 0.95 mg/kg/injection, schedule: Q01DX Z (ip), vehicle: carboxymethylcellulose (CMC)) 101 % of control; (dose: 1.9 mg/kg/injection, schedule: Q01DX Z (ip), vehicle: carboxymethylcellulose (CMC)) 115 % of control and 90 % of control; under setting [4], 94 % of control; (dose: 3.8 mg/kg/injection, schedule: Q01DX Z (ip), vehicle: carboxymethylcellulose (CMC)) 108 % of control; (dose: 4.0 mg/kg/injection, schedule: Q01DX010 (ip), vehicle: saline) 94 % of control. Besides, the T/C by setting is: under setting [5], 115 % of control; under setting [1], 115 % of control.
Regarding `CC(=O)[C@H]1CC[C@H]2[C@@H]3C[C@H](C)C4=CC(=O)CC[C@]4(C)[C@H]3C(=O)C[C@]12C`, the T/C under setting [6] was 100 % of control; the T/C under setting [7] was 108 % of control; the T/C under setting [8] is 114 % of control; the T/C under setting [9] was 104 % of control and 105 % of control; the T/C under setting [10] was 110 % of control; the T/C (dose: 800.0 mg/kg/injection, schedule: Q01DX Z (sc), vehicle: steriod suspending solution) was 100 % of control.
On to `O=C(Nc1ccc(C2=NCCN2)cc1)c1ccc(C(=O)Nc2ccc(C3=NCCN3)cc2)c([N+](=O)[O-])c1`, for which the T/C is, setting by setting: (dose: 6.0 mg/kg/injection, schedule: Q01DX010 (ip), vehicle: saline) 155 % of control and 175 % of control; under setting [5], 188 % of control and 262 % of control; (dose: 12.0 mg/kg/injection, schedule: Q01DX010 (ip), vehicle: saline) 333 % of control and 375 % of control; (dose: 18.0 mg/kg/injection, schedule: Q01DX010 (ip), vehicle: saline) 187 % of control.
For `O=[n+]1c2c(n([O-])c3ccccc31)-c1cccc3cccc-2c13`, the T/C by setting is: under setting [11], 88 % of control; under setting [12], 94 % of control and 100 % of control; (dose: 100.0 mg/kg/injection, schedule: Q01DX010 (ip), vehicle: saline) 100 % of control; (dose: 200.0 mg/kg/injection, schedule: Q01DX010 (ip), vehicle: saline) 88 % of control and 100 % of control.
As for `Clc1ccc(C(c2ccccc2Cl)C(Cl)Cl)cc1` (configuration not stated), the T/C was 100 % of control under setting [6]; 122 % of control under setting [7]; 107 % of control under setting [8]; 86 % of control and 100 % of control under setting [9]; 101 % of control under setting [10].
Take `NC(=O)N(CCCl)N=O`: the T/C is 205 % of control under setting [13]; 222 % of control under setting [14]; 105 % of control under setting [2]; 166 % of control under setting [4]; 98 % of control under setting [3]; 104 % of control (dose: 4.0 mg/kg/injection, schedule: Q01DX Z (ip), vehicle: carboxymethylcellulose (CMC)). The T/C (dose: 8.0 mg/kg/injection, schedule: Q01DX Z (ip), vehicle: carboxymethylcellulose (CMC)) was 152 % of control and 210 % of control.
On to `CCOC(N)=O`, for which the T/C was 110 % of control and 94 % of control (dose: 125.0 mg/kg/injection, schedule: Q01DX010 (ip), vehicle: saline); 94 % of control (dose: 250.0 mg/kg/injection, schedule: Q01DX010 (ip), vehicle: saline); 94 % of control (dose: 500.0 mg/kg/injection, schedule: Q01DX010 (ip), vehicle: saline).
Regarding `CS(=O)(=O)OCCCCOS(C)(=O)=O`, the T/C (dose: 6.25 mg/kg/injection, schedule: Q01DX010 (ip), vehicle: saline) was 110 % of control; the T/C (dose: 12.5 mg/kg/injection, schedule: Q01DX010 (ip), vehicle: saline) was 105 % of control and 115 % of control; the T/C under setting [11] was 105 % of control and 110 % of control; the T/C under setting [12] was 121 % of control and 100 % of control.
With `CC(=O)NC1=C(N2CC2)C(=O)C(NC(C)=O)=C(N2CC2)C1=O`, the T/C was 105 % of control (dose: 0.25 mg/kg/injection, schedule: Q01DX010 (ip), vehicle: saline); 166 % of control under setting [13]; 222 % of control under setting [14]; 111 % of control under setting [4]; 105 % of control (dose: 125.0 micrograms/kg/injection, schedule: Q01DX010 (ip), vehicle: saline); 100 % of control (dose: 250.0 micrograms/kg/injection, schedule: Q01DX010 (ip), vehicle: saline). Further, the T/C (dose: 500.0 micrograms/kg/injection, schedule: Q01DX010 (ip), vehicle: saline) is 100 % of control and the T/C (dose: 1000.0 micrograms/kg/injection, schedule: Q01DX010 (ip), vehicle: saline) was 122 % of control.
For the molecule `CSc1ncnc2c1ncn2C1OC(CO)C(O)C1O` (configuration not stated), the T/C was 101 % of control (dose: 3.1 mg/kg/injection, schedule: Q01DX Z (ip), vehicle: carboxymethylcellulose (CMC)); 124 % of control (dose: 6.3 mg/kg/injection, schedule: Q01DX Z (ip), vehicle: carboxymethylcellulose (CMC)); 118 % of control (dose: 12.5 mg/kg/injection, schedule: Q01DX Z (ip), vehicle: carboxymethylcellulose (CMC)).

(Values after PubChem BioAssay AID216 (DTP/NCI, 2004).)
